# Measured values as given in PMC7772935, “Plant-Derived Compounds as a Tool for the Control of Gastrointestinal Nematodes: Modulation of Abamectin Pharmacological Action by Carvone” (Frontiers in Veterinary Science, 2020).
# Marks after values point to notes of the source that are not given here.
# Columns and labels:
# bovine ileal explants [1] = experiment: ABM accumulation in bovine ileal explants, modulation by R-CNE or IVM; assay type: in vitro ADME, cattle; details: 0.05 μM ABM; for Effect on ABM accumulation in intestinal explants: 3.33 mM R-CNE or 0.5 μM IVM, 15-60 min
# Text: Cattle ileum samples were obtained from a local slaughterhouse ([…], Argentina) located 16 km away from the laboratory facilities.
# sheep intestine = tested on: sheep intestine; parameters: method as in PMID 24611483; details: Ussing chambers; cited from earlier work
# P-gp = tested on: P-gp; parameters: method as in PMID 16384552; details: read-out: Concentration that inhibited the activated ATPase activity by 50%; cited from earlier work
# bovine ileal explants [2] = tested on: bovine ileal explants
# Text: (§1) Data are expressed as mean ± standard deviation (SD). […] Differences were considered statistically significant at p < 0.05.
# [3] = R-CNE plasma concentrations after oral administration to lambs; assay type: in vivo; details: Corriedale and Texel crossbreed, sheep, 100 mg/kg oral, four doses every 24 h, after each dose
# Procedure: (§2) All the animals had free access to water. Lambs were assigned to three experimental groups.
# R-CNE analysis was performed according the technique described by Tao and Pereira ([23]), with modifications. Aliquots of plasma (0.25 mL) were mixed with acetonitrile, agitated and centrifuged. Supernatants were injected into the HPLC system fitted with a Kromasil C18 column. The mobile phase was water/acetonitrile (40/60) at an isocratic flow of 1.3 mL/min. R-CNE was analyzed using a UV detector (Shimadzu, SPD-10A).
# as §1
# [4] = tested on: Haemonchus contortus egg hatch; parameters: method as in PMID 28807309; details: in vitro; cited from earlier work
# [5] = tested on: Haemonchus spp. eggs and larvae; parameters: method as in PMID 28807309; details: in vitro; cited from earlier work
# [6] = Undesirable effects after oral administration in the in vivo assay; details: lambs, R-CNE 100 mg/kg, four oral doses every 24 h
# Text: as §2
# P-gp transport = tested on: P-gp transport; parameters: method as in PMID 25865432; details: cited from earlier work
# [7] = ABM plasma disposition after oral administration to lambs; details: ABM 0.2 mg/kg oral, alone or with R-CNE 4 x 100 mg/kg every 24 h, mean ± SD, n = 8
# Text: as §1
# [8] = tested on: resistant gastrointestinal nematodes; experiment: Fecal egg count reduction test in naturally infected lambs; assay type: in vivo
# Procedure: as §2
# The fecal samples were analyzed to obtain the epg counts. The coprocultures were prepared with 10 g of feces from a pool of each experimental group obtained on days−1 and 14. The nematode genera and species were identified through the third-stage larvae recovered from the coprocultures ([24]). The fecal egg count reduction test (FECRT) was calculated using the Abbott's formula ([25]), with modifications: […]
# where T1 and T2 are the arithmetic mean epg counts in the treated group on days 0 and 14, respectively, and C1 and C2 are the arithmetic mean epg counts in the control group on days 0 and 14, respectively. The 95% confidence intervals were calculated following Coles et al. ([26]).
molecule,measurement,setting,value
"CC[C@H](C)[C@H]1O[C@]2(CC[C@@H]1C)C[C@@H]1C[C@@H](C/C=C(\C)[C@@H](O[C@H]3C[C@H](OC)[C@@H](O[C@H]4C[C@H](OC)[C@@H](O)[C@H](C)O4)[C@H](C)O3)[C@@H](C)/C=C/C=C3\CO[C@@H]4[C@H](O)C(C)=C[C@@H](C(=O)O1)[C@]34O)O2 [IVM, ivermectin]",Effect on ABM accumulation in intestinal explants,bovine ileal explants [1],significantly increased the accumulation of ABM in the intestinal explants at all incubation times
same,Increase of Rho123 absorption in the presence of the inhibitor,sheep intestine,69%
same,IC50,P-gp,2.5 µM
"COC(=O)c1ccccc1-c1c2ccc(=N)cc-2oc2cc(N)ccc12 [Rho123, Rhodamine 123]",Accumulation rate of Rho123,"bovine ileal explants [2]; male, Aberdeen Angus/Hereford crossbreed, cattle, 0.5 µM",0.69 ± 0.19 ρg Rho/min/mg tissue
"C=C(C)C1CC=C(C)C(=O)C1 (centres unmarked) [R-CNE, 5-isopropenyl-2-methyl-2-cyclohexenone]",Cmax,[3],1790 ± 598 ng/mL
same,50% lethal concentration,[4],85 µg/mL
same,Concentrations necessary to obtain an efficacy >90%,[5],370 µg/mL
same,Effect on ABM accumulation in intestinal explants,bovine ileal explants [1],increased the intestinal concentration of the synthetic anthelmintic ABM at 15 and 30 min of incubation
same,"Intestinal concentration of ABM, % higher than control (ABM alone)","bovine ileal explants [1]; 30 min of incubation, 3.33 mM R-CNE",28.1 ± 35.7%
same,Undesirable effects after oral administration,[6],no undesirable effects were observed
same,Effect on Rho123 concentrations in the intestinal explants,"bovine ileal explants [2]; 3.33 mM R-CNE, 15, 30, 45, 60 min",significantly increased Rho123 concentrations in the intestinal explants at all incubation times
same,"Rho123 concentration in intestinal explants, % higher than Rho123 incubated alone","bovine ileal explants [2]; 60 min of incubation, 3.33 mM R-CNE, 0.5 μM Rho123",67 ± 21%
abamectin [ABM],"Concentrations necessary to inhibit P-gp transport, fold lower than to inhibit MRPs-mediated transport",P-gp transport,3 fold
same,AUC0−168h of ABM,[7],815.67 ± 303.1
same,Cmax of ABM,[7],16.20 ± 10.2^a μg/mL
same,Tmax of ABM,[7],10.75 ± 9.6^a h
same,T½ el (elimination half-life) of ABM,[7],28.04 ± 8.1^a h
same,Mean epg counts Day 14,"[8]; 14 days after oral administration, mean ± SD",45 ± 121 epg
same,Classification of drug efficacy according to Coles et al.,[8]; FECRT criteria,suspected of resistance
same,Mean epg counts Day 0,"[8]; before treatment, mean ± SD","2,193 ± 858 epg"
same,FECR (LCL-UCL),"[8]; day 14, 95% confidence limits",94.9 (65.0-99.0) %
same,Proportion of Haemonchus spp. in coprocultures after treatment,"[8]; day 14, third-stage larvae",88%
same,Proportion of Teladorsagia spp. in coprocultures after treatment,"[8]; day 14, third-stage larvae",12%
